Patent publication US7115741B2, “4-thieno[2,3-D]pyrimidin-4-YL piperazine compounds” (priority 2001, dated 2006)

Each compound was assayed on platelet ADP receptors (assay: ARB binding assay (platelet ADP receptor binding, [3H]2-MeS-ADP)). Details: relative activities of selected compounds in the ARB binding assay.
Parameters: species or system human
Protocol: Utilizing the second assay the potency of inhibition of such compounds with respect to [^3H]2-MeS-ADP binding to whole platelets is determined. [^3H]2-MeS-ADP binding experiments are routinely performed with outdated human platelets collected by standard procedures at hospital blood banks. Apyrase-washed outdated platelets are prepared as follows (all steps at room temperature, if not indicated otherwise):
Outdated platelet suspensions are diluted with 1 volume of CGS and platelets pelleted by centrifugation at 1900×g for 45 minutes. Platelet pellets are resuspended at 3–6×10^9 platelets/ml in CGS containing 1 U/ml apyrase (grade V, Sigma, St. Louis, Mo.) and incubated for 15 minutes at 37° C. After centrifugation at 730×g for 20 minutes, pellets are resuspended in Hepes-Tyrode's buffer containing 0.1% BSA (Sigma, St. Louis, Mo.) at a concentration of 6.66×10^8 platelets/ml. Binding experiments are performed after >45 minutes resting of the platelets.
Alternatively, binding experiments are performed with fresh human platelets prepared as described in I.(Inhibition of ADP-Mediated Platelet Aggregation in vitro), except that platelets are resuspended in Hepes-Tyrode's buffer containing 0.1% BSA (Sigma, St. Louis, Mo.) at a concentration of 6.66×10^8 platelets/ml. Very similar results are obtained with fresh and outdated platelets.
A platelet ADP receptor binding assay using the tritiated potent agonist ligand [^3H]2-MeS-ADP (Jantzen, H. M. et al. (1999) Thromb. Hemost. 81:111–117) has been adapted to the 96-well microtiter format. In an assay volume of 0.2 ml Hepes-Tyrode's buffer with 0.1% BSA and 0.6% DMSO, 1×10^8 apyrase-washed platelets are preincubated in 96-well flat bottom microtiter plates for 5 minutes with serial dilutions of test compounds before addition of 1 nM [^3H]2-MeS-ADP ([^3H]2-methylthioadenosine-5′-diphosphate, ammonium salt; specific activity 48–49 Ci/mmole, obtained by custom synthesis from Amersham Life Science, Inc., Arlington Heights, Ill., or NEN Life Science Products, Boston, Mass.). Total binding is determined in the absence of test compounds. Samples for nonspecific binding may contain 10^−5 M unlabelled 2-MeS-ADP (RBI, Natick, Mass.). After incubation for 15 minutes at room temperature, unbound radioligand is separated by rapid filtration and two washes with cold (4–8° C.) Binding Wash Buffer (10 mM Hepes pH 7.4, 138 mM NaCl) using a 96-well cell harvester (Minidisc 96, Skatron Instruments, Sterling, Va.) and 8×12 GF/C glassfiber filtermats (Printed Filtermat A, for 1450 Microbeta, Wallac Inc., Gaithersburg, Md.). The platelet-bound radioactivity on the filtermats is determined in a scintillation counter (Microbeta 1450, Wallac Inc., Gaithersburg, Md.). Specific binding is determined by subtraction of non-specific binding from total binding, and specific binding in the presence of test compounds is expressed as % of specific binding in the absence of test compounds dilutions.
`CCc1cc2c(N3CCN(C(=O)[C@H](C)c4ccccc4)CC3)ncnc2s1` [Example 349, 1-[4-(6-Ethyl-thieno[2,3-d]pyrimidin-4-yl)-piperazin-1-yl]-2-phenyl-propan-1-one] was tested, and the “Relative Activity” value was “+ (>20 micromolar)”. In the case of `CCc1cc2c(N3CCN(C(=O)c4ccncc4)CC3)ncnc2s1` [Example 362, [4-(6-Ethyl-thieno[2,3-d]pyrimidin-4-yl)-piperazin-1-yl]-pyridin-4-yl-methanone], the “Relative Activity” value is reported as “+ (>20 micromolar)”. In the case of `CCc1cc2c(N3CCN(C(=O)CCCn4nnc5ccccc54)CC3)ncnc2s1` [Example 372, 4-Benzotriazol-1-yl-1-[4-(6-Ethyl-thieno[2,3-d]pyrimidin-4-yl)-piperazin-1-yl]-butan-1-one], the “Relative Activity” value is reported as “++ (10–20 micromolar)”. In the case of `CCc1cc2c(N3CCN(C(=O)CCC(=O)OC)CC3)ncnc2s1` [Example 384, 4-[4-(6-Ethyl-thieno[2,3-d]pyrimidin-4-yl)-piperazin-1-yl]-4-oxo-butyric acid methyl ester], the “Relative Activity” value is reported as “+ (>20 micromolar)”. In the case of `CCc1cc2c(N3CCN(C(=O)CCCC(=O)O)CC3)ncnc2s1` [Example 390, 5-[4-(6-Ethyl-thieno[2,3-d]pyrimidin-4-yl)-piperazin-1-yl]-5-oxo-pentanoic acid], the “Relative Activity” value is reported as “+ (>20 micromolar)”. `CCc1cc2c(N3CCN(C(=O)CCCCC#N)CC3)ncnc2s1` [Example 395, 6-[4-(6-Ethyl-thieno[2,3-d]pyrimidin-4-yl)-piperazin-1-yl]-6-oxo-hexanenitrile] was tested, and the “Relative Activity” value was “+ (>20 micromolar)”. `CCc1cc2c(N3CCN(C(=O)c4ccc(-c5ccccc5)s4)CC3)ncnc2s1` [Example 408, [4-(6-Ethyl-thieno[2,3-d]pyrimidin-4-yl)-piperazin-1-yl]-(5-phenyl-thiophen-2-yl)-methanone] was tested, and the “Relative Activity” value was “++ (10–20 micromolar)”. With `CCc1cc2c(N3CCN(C(=O)CCCSc4nccn4-c4ccccc4)CC3)ncnc2s1` [Example 429, 1-[4-(6-Ethyl-thieno[2,3-d]pyrimidin-4-yl)-piperazin-1-yl]-4-(1-phenyl-1H-imidazol-2-ylsulfanyl)-butan-1-one] the “Relative Activity” value was “+ (>20 micromolar)”. `CCc1cc2c(N3CCN(C(=O)CCCNc4ncccn4)CC3)ncnc2s1` [Example 430, 1-[4-(6-Ethyl-thieno[2,3-d]pyrimidin-4-yl)-piperazin-1-yl]-4-(pyrimidin-2-ylamino)-butan-1-one] was tested, and the “Relative Activity” value was “+ (>20 micromolar)”. With `CCc1cc2c(N3CCN(C(=O)C(c4ccccc4)N4CCNCC4)CC3)ncnc2s1` (centres unmarked) [Example 432, 1-[4-(6-Ethyl-thieno[2,3-d]pyrimidin-4-yl)-piperazin-1-yl]-2-phenyl-2-piperazin-1-yl-ethanone] the “Relative Activity” value was “+ (>20 micromolar)”. For `CCc1cc2c(N3CCN(C(=O)c4ccc5ccccc5n4)CC3)ncnc2s1` [Example 453, [4-(6-Ethyl-thieno[2,3-d]pyrimidin-4-yl)-piperazin-1-yl]-quinolin-2-yl-methanone], the “Relative Activity” value was “+ (>20 micromolar)”.
